From ChEMBL document CHEMBL1136385, “Synthesis and pharmacological activity of fluorescent histamine H2 receptor antagonists related to potentidine” (Bioorg Med Chem Lett, 2003)

target: Histamine H2 receptor (Cavia porcellus, UniProt P47747); test: Histamine H2 receptor antagonistic activity on the isolated spontaneously beating guinea pig right atrium; format: functional, tissue-based, Cardiac atrium; conditions: read-out: pA2 (converted)
Sequence (P47747 whole entry): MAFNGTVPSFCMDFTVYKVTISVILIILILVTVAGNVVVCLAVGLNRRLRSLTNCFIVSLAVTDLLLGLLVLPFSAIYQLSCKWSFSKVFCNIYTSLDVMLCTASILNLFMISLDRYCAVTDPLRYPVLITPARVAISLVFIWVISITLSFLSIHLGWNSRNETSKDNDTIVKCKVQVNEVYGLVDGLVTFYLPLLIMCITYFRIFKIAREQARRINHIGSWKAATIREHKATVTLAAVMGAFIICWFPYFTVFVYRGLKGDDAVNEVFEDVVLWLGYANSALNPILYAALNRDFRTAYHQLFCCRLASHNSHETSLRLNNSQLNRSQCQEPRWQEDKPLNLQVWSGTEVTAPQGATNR

Row | Kb | Structure (SMILES)
1 | 10000 nM | N#CN/C(=N\CCCCNC(=O)c1ccc(C(=O)O)c(C2c3ccc(O)cc3OC3=CC(=O)C=CC32)c1)NCCCOc1cccc(CN2CCCCC2)c1 (stereo not given)
2 | 170 nM | CN/C(=C/[N+](=O)[O-])NCCSCc1ccc(CN(C)C)o1 [RANITIDINE]
3 | 182 nM | N#CN/C(=N\CCNC(=O)c1c2ccccc2nc2ccccc12)NCCCOc1cccc(CN2CCCCC2)c1
4 | 44700 nM | N#CN/C(=N\CCNC(=O)c1ccc(C(=O)O)c(C2c3ccc(O)cc3OC3=CC(=O)C=CC32)c1)NCCCOc1cccc(CN2CCCCC2)c1 (stereo not given)
5 | 37.2 nM | N#CN/C(=N\CCCNc1ccc([N+](=O)[O-])c2nonc12)NCCCOc1cccc(CN2CCCCC2)c1
6 | 1100 nM | N#CN/C(=N\CCN)NCCCOc1cccc(CN2CCCCC2)c1
7 | 1820 nM | CC(=O)c1ccc2n(c1=O)[C@H](COC(=O)CCC(=O)NCCCOc1cccc(CN3CCCCC3)c1)Cc1c-2[nH]c2ccccc12
8 | 38.9 nM | CC(=O)OCC(=O)NCCCOc1cccc(CN2CCCCC2)c1 [ROXATIDINE ACETATE]
9 | 11 nM | N#CN=C(NCCCCCCCCNc1ccc([N+](=O)[O-])c2n[o+][n-]c12)NCCCOc1cccc(CN2CCCCC2)c1
10 | 18.2 nM | NC(N)=Nc1nc(CSCCC(N)=NS(N)(=O)=O)cs1 [FAMOTIDINE]
11 | 25.7 nM | N#CN/C(=N\CCNC(=O)CCCCCNc1ccc([N+](=O)[O-])c2nonc12)NCCCOc1cccc(CN2CCCCC2)c1
12 | 1950 nM | CN(C)c1cccc2c(S(=O)(=O)NCC/N=C(\NC#N)NCCCOc3cccc(CN4CCCCC4)c3)cccc12
13 | 66100 nM | N#CN/C(=N\CCNC(=O)c1ccc(C2c3ccc(O)cc3OC3=CC(=O)C=CC32)c(C(=O)O)c1)NCCCOc1cccc(CN2CCCCC2)c1 (stereo not given)
14 | 32.4 nM | N#CN/C(=N\CCCCCCNc1ccc([N+](=O)[O-])c2nonc12)NCCCOc1cccc(CN2CCCCC2)c1
15 | 8910 nM | N#CN/C(=N\CCCCNC(=O)c1ccc(C2c3ccc(O)cc3OC3=CC(=O)C=CC32)c(C(=O)O)c1)NCCCOc1cccc(CN2CCCCC2)c1 (stereo not given)
